Each structure is given as a SMILES string. “Also recorded” adds a separate entry of the source. A value given as a limit tells only on which side of the number the result lay.

These results are taken from patent US20040152685A1, “Agents and methods for the prevention of initial onset and recurrence of existing cancers” (priority 2001, published 2004).

Holding throughout (assay type): cell-based
Assay [1] has as its system prostate cancer cell lines (LNCaP, DU145) and brain and/or nervous system cancer cell line (DAOY). The assay is described as follows: Induction of apoptosis in prostate and brain/nervous system cancer cell lines. The note with it: DU145, DAOY cells.
Excerpt: (§1) In a multitude of experiments, using prostate cancer cell lines (both androgen-dependent (LNCaP), and androgen-independent (DU145) cells), and a brain and/or nervous system cancer cell line (DAOY), the present inventors have studied the effects of 2-ME and 16-ES on cell proliferation and the induction of apoptosis, in a number of ways.
Assay [2] has the same test system. The assay is described as follows: Cell proliferation of prostate and brain/nervous system cancer cell lines. As to conditions: DU145, DAOY cells.
Excerpt: as §1
The next assay deals with DU145 cells. Briefly: Cell growth of DU145 prostate cancer cells after treatment. As to conditions: Homo sapiens, DU-145, FIG. 6, read-out: concentration necessary to see 50% inhibition of growth.
For a further assay, the system named is LNCaP cells. The assay is described as follows: Cell growth of LNCaP prostate cancer cells after treatment. The note with it: for inhibition of growth of LNCaP cells: 72 hours of treatment, FIG. 7. The method, then:
Cells were treated with either eugenol (0.25, 0.5, 0.75 or 1 mM) or 2-ME (0.5, 1, 2 or 3 mM) or both (0.25, 0.5, 0.75 or 1 mM of eugenol along with 0.5 mM of 2-ME). Cell growth was measured following 72 hours of treatment as described above.

On to `C[C@]12CC[C@@H]3c4ccc(O)cc4CC[C@H]3[C@@H]1C[C@H](O)[C@@H]2O` [16-ES, 16-epiestriol], for which the pro-apoptotic effects result in assay [1] is on record as “does not”. Moreover, the “inhibition of cancerous cell growth” value in assay [2] was “does not”.

Turning to `C=CCc1ccc(O)c(OC)c1` [eugenol], the IC50 in the assay with DU145 cells is over 2000 µM; with LNCaP cells (Homo sapiens, LNCaP, read-out: concentration necessary to see 50% inhibition of growth), about 750 µM. Also, the “inhibition of growth of LNCaP cells” value in the assay with LNCaP cells (0.25 mM of eugenol) is given as “about 30%”.

Consider `COc1cc2c(cc1O)CC[C@@H]1[C@@H]2CC[C@]2(C)[C@@H](O)CC[C@@H]12` [2-ME, 2-methoxyoestradiol], for which the pro-apoptotic effects entry in assay [1] is recorded as “has pro-apoptotic effects”. Further, in assay [2], the “inhibition of cancerous cell growth” value was “significantly inhibits cancerous cell growth; also recorded: inhibits the growth”. Moreover, the “inhibition of growth of LNCaP cells” value with LNCaP cells (0.5 mM of 2-ME) was “about 20%”.
